From patent US11292788B2, “IL-17 and IFN-gamma inhibition for the treatment of autoimmune diseases and chronic inflammation” (Immunic AG, priority 2017, dated 2022)
pIC50: −log10 of the molar value. Like-named read-outs stand apart in the source and are kept apart here.

Assays:
IL-17A = assay: Cytokine assay: IL-17A production by human PBMC stimulated with PHA; format: cell-based; conditions: IC50 class, read-out: IL-17A Inhib.
Procedure, shortened: (§1)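 Human donor PBMC (1×10^5 cells/well) were activated with 2 μg/ml PHA and exposed to compounds for 48 h. Supernatant IL-17A, IL-17F and IFN-γ were measured by Luminex or ELISA. Screening used 10, 1, 0.1 and 0.01 μM; IC50 values came from semilogarithmic titrations.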

IL-17F = assay: Cytokine assay: IL-17F production by human PBMC stimulated with PHA; format: cell-based; conditions: IC50 class, read-out: IL-17F Inhib.
Procedure, shortened: as §1

INF-γ = assay: Cytokine assay: INF-γ production by human PBMC stimulated with PHA; format: cell-based; conditions: Homo sapiens, PBMC, IC50 class, read-out: IFN-gamma Inhib.
Procedure, shortened: as §1

[1] = Microsomal stability: incubation with human liver microsomes, residual parent compound by HPLC-MS/MS; format: in vitro ADME; conditions: up to 60 min, read-out: t1/2 hLM
Protocol: Metabolic stability of compounds of the present invention was determined by incubation with human liver microsomes and subsequent determination of residual amount of the respective compound (“parent compound”) by HPLC-MS/MS.
In order to achieve this, in a final reaction volume of 1000 μl, each compound was incubated at a final concentration of 1 μM with 0.5 mg/ml human liver microsomes (HLM Pool 50 Donors, 20 mg/ml, BD Gentest, #452156, LotNr 88114) in 0.1 M Potassium phosphate buffer at pH 7.4, with a cofactor in form of a NADPH regenerating system (Promega, #V9510) according to the manufacturers' specifications. The final DMSO concentration in each sample was 0.4%. The incubation was performed at 37° C. under shaking conditions (Thermomixer, 1400 rpm) for different time intervals up to 60 min. To stop the reaction, for each time point 200 μl of the reaction were taken out and 200 μl ice-cold acetonitrile was added. Then, the samples were centrifuged (4° C., 14000*g for 15 min). The supernatant was analyzed for residual parent compound concentration and scanned for metabolites using HPLC-MS/MS. By using optimized MS methods for each compound, the peak area under curve for the compound specific signal is determined. The change of the peak areas over the assay time of 60 min resemble the remaining parent compound in % of T0. By these points, a balancing line was set. The half-time, as well as the clearance, can then be calculated on the basis of the slope.

[2] = human liver microsomes 0.5 mg/ml, compound 1 μM, pH 7.4, 37° C.
[3] = pH 7.4, human liver microsomes, 1 μM compound, 0.5 mg/ml HLM, 37° C.

CCOC(=O)c1c(-c2c(F)cccc2Cl)noc1-c1cnn(C[C@@H](O)C(F)(F)F)c1C(F)(F)F [Example 16, ethyl 3-(2-chloro-6-fluorophenyl)-5-{1-[(2R)-3,3,3-trifluoro-2-hydroxypropyl]-5-(trifluoromethyl)-1H-pyrazol-4-yl}-1,2-oxazole-4-carboxylate]
pIC50 (IL-17A; Homo sapiens, PBMC): > 7.30
pIC50 (IL-17F; Homo sapiens, PBMC): > 7.30
pIC50 (INF-γ): > 7.30
half-life at 1 μM [1, 2]: 2 to 9.99 min

CC(C)(O)Cn1ncc(-c2onc(-c3c(F)cccc3Cl)c2C(=O)OC2CC2)c1C(F)(F)F [Example 55, cyclopropyl 3-(2-chloro-6-fluorophenyl)-5-[1-(2-hydroxy-2-methylpropyl)-5-(trifluoromethyl)-1H-pyrazol-4-yl]-1,2-oxazole-4-carboxylate]
pIC50 (IL-17A; Homo sapiens, PBMC): > 7.30
pIC50 (IL-17F; Homo sapiens, PBMC): > 7.30
pIC50 (INF-γ): > 7.30
half-life at 1 μM [1, 2]: 40 to 100 min

COC(=O)c1c(-c2cccc(OC)c2Cl)noc1-c1cnn(CCC(C)(C)O)c1C [Example 25, methyl 3-(2-chloro-3-methoxyphenyl)-5-[1-(3-hydroxy-3-methylbutyl)-5-methyl-1H-pyrazol-4-yl]-1,2-oxazole-4-carboxylate]
pIC50 (IL-17A; Homo sapiens, PBMC): > 7.30
pIC50 (IL-17F; Homo sapiens, PBMC): > 7.30
pIC50 (INF-γ): > 7.30
half-life at 1 μM [1, 2]: > 100 min

C[C@@H](O)Cn1ncc(-c2onc(-c3c(F)cccc3Cl)c2C(=O)OC2COC2)c1C(F)(F)F [Example 58, oxetan-3-yl 3-(2-chloro-6-fluorophenyl)-5-{1-[(2R)-2-hydroxypropyl]-5-(trifluoromethyl)-1H-pyrazol-4-yl}-1,2-oxazole-4-carboxylate]
pIC50 (IL-17A; Homo sapiens, PBMC): 6.30 to 7.30
pIC50 (IL-17F; Homo sapiens, PBMC): > 7.30
pIC50 (INF-γ): > 7.30
half-life at 1 μM [1, 2]: 40 to 100 min

COCc1c(-c2cccc(OCCN3CCOCC3)c2Cl)noc1-c1cnn([C@H]2C[C@](C)(O)C2)c1C(F)(F)F [Example 152, 3-[4-(3-{2-chloro-3-[2-(morpholin-4-yl)ethoxy]phenyl}-4-(methoxymethyl)-1,2-oxazol-5-yl)-5-(trifluoromethyl)-1H-pyrazol-1-yl]-1-methylcyclobutan-1-ol]
pIC50 (IL-17A; Homo sapiens, PBMC): 6.30 to 7.30
pIC50 (IL-17F; Homo sapiens, PBMC): 6.30 to 7.30
pIC50 (INF-γ): 6.30 to 7.30
half-life at 1 μM [1, 3]: 2 to 9.99 min

OC(Cn1ncc(-c2onc(-c3c(F)cccc3Cl)c2-c2nccs2)c1C(F)(F)F)C(F)(F)F (racemic) [Example 7, 3-{4-[3-(2-chloro-6-fluorophenyl)-4-(1,3-thiazol-2-yl)-1,2-oxazol-5-yl]-5-(trifluoromethyl)-1H-pyrazol-1-yl}-1,1,1-trifluoropropan-2-ol]
pIC50 (IL-17A; Homo sapiens, PBMC): > 7.30
pIC50 (IL-17F; Homo sapiens, PBMC): > 7.30
pIC50 (INF-γ): > 7.30
half-life at 1 μM [1, 2]: 10 to 40 min

Cc1c(-c2onc(-c3ccccc3Cl)c2C(=O)OC2CC2)cnn1[C@H]1C[C@@](C)(O)C1 [Example 53, cyclopropyl 3-(2-chlorophenyl)-5-{5-methyl-1-[3-hydroxy-3-methylcyclobutyl]-1H-pyrazol-4-yl}-1,2-oxazole-4-carboxylate]
pIC50 (IL-17A): > 7.30
pIC50 (IL-17F): > 7.30
pIC50 (INF-γ): > 7.30
half-life at 1 μM [1, 2]: > 100 min

COC(=O)c1c(-c2c(F)cccc2Cl)noc1-c1cnn(C[C@H](C)O)c1C(F)(F)F [Example 23, methyl (S)-3-(2-chloro-6-fluorophenyl)-5-(1-(2-hydroxypropyl)-5-(trifluoromethyl)-1H-pyrazol-4-yl)isoxazole-4-carboxylate]
pIC50 (IL-17A; Homo sapiens, PBMC): 6.30 to 7.30
pIC50 (IL-17F; Homo sapiens, PBMC): 6.30 to 7.30
pIC50 (INF-γ): > 7.30
half-life at 1 μM [1, 2]: 10 to 40 min

COCc1c(-c2cccc(OCCN3CCOCC3)c2Cl)noc1-c1cnn([C@H]2C[C@@](C)(O)C2)c1C(F)(F)F [Example 150, 3-[4-(3-{2-chloro-3-[2-(morpholin-4-yl)ethoxy]phenyl}-4-(methoxymethyl)-1,2-oxazol-5-yl)-5-(trifluoromethyl)-1H-pyrazol-1-yl]-1-methylcyclobutan-1-ol]
pIC50 (IL-17A; Homo sapiens, PBMC): > 7.30
pIC50 (IL-17F; Homo sapiens, PBMC): > 7.30
pIC50 (INF-γ): > 7.30
half-life at 1 μM [1, 3]: 2 to 9.99 min

CC(C)(O)CCn1ncc(-c2onc(-c3c(F)cccc3Cl)c2-c2nccs2)c1C(F)(F)F [Example 3, 4-(4-(3-(2-chloro-6-fluorophenyl)-4-(thiazol-2-yl)isoxazol-5-yl)-5-(trifluoromethyl)-1H-pyrazol-1-yl)-2-methylbutan-2-ol]
pIC50 (IL-17A; Homo sapiens, PBMC): > 7.30
pIC50 (IL-17F; Homo sapiens, PBMC): > 7.30
pIC50 (INF-γ): > 7.30
half-life at 1 μM [1, 2]: > 100 min

C[C@H](O)Cn1ncc(-c2onc(-c3c(F)cccc3Cl)c2-c2nccs2)c1C(F)(F)F [Example 5, (2S)-1-(4-(3-(2-chloro-6-fluorophenyl)-4-(thiazol-2-yl)isoxazol-5-yl)-5-(trifluoromethyl)-1H-pyrazol-1-yl)propan-2-ol]
pIC50 (IL-17A; Homo sapiens, PBMC): > 7.30
pIC50 (IL-17F; Homo sapiens, PBMC): 6.30 to 7.30
pIC50 (INF-γ): > 7.30
half-life at 1 μM [1, 2]: 40 to 100 min

CC(C)(O)CCn1ncc(-c2onc(-c3cccc(OCCN4CCS(=O)(=O)CC4)c3Cl)c2-c2ncccn2)c1C(F)(F)F [Example 138, 4-[2-(2-chloro-3-{5-[1-(3-hydroxy-3-methylbutyl)-5-(trifluoromethyl)-1H-pyrazol-4-yl]-4-(pyrimidin-2-yl)-1,2-oxazol-3-yl}phenoxy)ethyl]-thiomorpholine-1,1-dione]
pIC50 (IL-17A; Homo sapiens, PBMC): > 7.30
pIC50 (IL-17F; Homo sapiens, PBMC): > 7.30
pIC50 (INF-γ): 6.30 to 7.30
half-life at 1 μM [1, 3]: 2 to 9.99 min

C[C@@H](O)Cn1ncc(-c2onc(-c3c(F)cccc3Cl)c2-c2nccs2)c1C(F)(F)F [Example 4, (2R)-1-(4-(3-(2-chloro-6-fluorophenyl)-4-(thiazol-2-yl)isoxazol-5-yl)-5-(trifluoromethyl)-1H-pyrazol-1-yl)propan-2-ol]
pIC50 (IL-17A; Homo sapiens, PBMC): > 7.30
pIC50 (IL-17F; Homo sapiens, PBMC): > 7.30
pIC50 (INF-γ): > 7.30
half-life at 1 μM [1, 2]: 10 to 40 min

CC(C)(O)CCn1ncc(-c2onc(-c3cccc(OCCN4CCOCC4)c3Cl)c2-c2ncccn2)c1C(F)(F)F [Example 133, 4-[4-(3-{2-chloro-3-[2-(morpholin-4-yl)ethoxy]phenyl}-4-(pyrimidin-2-yl)-1,2-oxazol-5-yl)-5-(trifluoromethyl)-1H-pyrazol-1-yl]-2-methylbutan-2-ol]
pIC50 (IL-17A; Homo sapiens, PBMC): > 7.30
pIC50 (IL-17F; Homo sapiens, PBMC): > 7.30
pIC50 (INF-γ): > 7.30
half-life at 1 μM [1, 3]: 2 to 9.99 min

COCc1c(-c2cccc(OCCN(C)C)c2Cl)noc1-c1cnn([C@H]2C[C@@](C)(O)C2)c1C(F)(F)F [Example 151, 3-[4-(3-{2-chloro-3-[2-(dimethylamino)ethoxy]phenyl}-4-(methoxymethyl)-1,2-oxazol-5-yl)-5-(trifluoromethyl)-1H-pyrazol-1-yl]-1-methylcyclobutan-1-ol]
pIC50 (IL-17A; Homo sapiens, PBMC): 6.30 to 7.30
pIC50 (IL-17F; Homo sapiens, PBMC): 6.30 to 7.30
pIC50 (INF-γ): 6.30 to 7.30
half-life at 1 μM [1, 3]: > 100 min

Cc1c(-c2onc(-c3cccc(OCCN4CCCC4)c3Cl)c2-c2ncccn2)cnn1CCC(C)(C)O [Example 146, 4-[4-(3-{2-chloro-3-[2-(pyrrolidin-1-yl)ethoxy]phenyl}-4-(pyrimidin-2-yl)-1,2-oxazol-5-yl)-5-methyl-1H-pyrazol-1-yl]-2-methylbutan-2-ol]
pIC50 (IL-17A; Homo sapiens, PBMC): 6.30 to 7.30
pIC50 (IL-17F; Homo sapiens, PBMC): 5.30 to 6.30
pIC50 (INF-γ): 6.30 to 7.30
half-life at 1 μM [1, 3]: > 100 min

COC(=O)c1c(-c2ccccc2Cl)noc1-c1cnn(CCC(C)(C)O)c1C [Example 19, methyl 3-(2-chlorophenyl)-5-[1-(3-hydroxy-3-methylbutyl)-5-methyl-1H-pyrazol-4-yl]-1,2-oxazole-4-carboxylate]
pIC50 (IL-17A; Homo sapiens, PBMC): > 7.30
pIC50 (IL-17F; Homo sapiens, PBMC): 6.30 to 7.30
pIC50 (INF-γ): > 7.30
half-life at 1 μM [1, 2]: > 100 min
